Assay results: ChEMBL document CHEMBL1909294, “Translating clinical findings into knowledge in drug safety evaluation--drug induced liver injury prediction system (DILIps)” (PLoS Comput Biol, 2011)

Legend:
[1] = system: Hepatotoxicity;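 for HepSE cholecystitis: Cholecystitis-related hepatic side effect score drawn from the DILIps (drug-induced liver injury prediction) training data set; call rule not given here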;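 for HepSE cholelithiasis: hepatic side effect score for cholelithiasis, drawn from the DILIps training data for predicting drug-induced liver injury; call rule not given here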;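 for HepSE cirrhosis: cirrhosis hepatic side effect score taken from the DILIps (drug-induced liver injury prediction) training set; call rule not given here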;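 for HepSE hepatitis: Hepatitis-related hepatic side effect score taken from the training data of DILIps, a prediction system for drug-induced liver injury; call rule not given here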;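 for HepSE hepatomegaly: hepatic side effect score for hepatomegaly, taken from the training set of the DILIps drug-induced liver injury prediction system; call rule not given here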;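 for HepSE liver function tests abnormal: hepatic side effect score taken from the DILIps (drug-induced liver injury prediction system) training data, here covering abnormal liver function test findings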
[2] = system: Hepatotoxicity; remark: listed apart in the source;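 for HepSE cholecystitis: Cholecystitis-related hepatic side effect score drawn from the DILIps (drug-induced liver injury prediction) training data set; call rule not given here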;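 for HepSE cholelithiasis: hepatic side effect score for cholelithiasis, drawn from the DILIps training data for predicting drug-induced liver injury; call rule not given here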;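 for HepSE cirrhosis: cirrhosis hepatic side effect score taken from the DILIps (drug-induced liver injury prediction) training set; call rule not given here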;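 for HepSE hepatitis: Hepatitis-related hepatic side effect score taken from the training data of DILIps, a prediction system for drug-induced liver injury; call rule not given here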;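 for HepSE hepatomegaly: hepatic side effect score for hepatomegaly, taken from the training set of the DILIps drug-induced liver injury prediction system; call rule not given here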;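 for HepSE liver function tests abnormal: hepatic side effect score taken from the DILIps (drug-induced liver injury prediction system) training data, here covering abnormal liver function test findings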
[3] = system: Hepatotoxicity; remark: listed apart in the source;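 for HepSE cholecystitis: Cholecystitis-related hepatic side effect score drawn from the DILIps (drug-induced liver injury prediction) training data set; call rule not given here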;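 for HepSE cholelithiasis: hepatic side effect score for cholelithiasis, drawn from the DILIps training data for predicting drug-induced liver injury; call rule not given here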;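 for HepSE cirrhosis: cirrhosis hepatic side effect score taken from the DILIps (drug-induced liver injury prediction) training set; call rule not given here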;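 for HepSE hepatitis: Hepatitis-related hepatic side effect score taken from the training data of DILIps, a prediction system for drug-induced liver injury; call rule not given here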;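 for HepSE hepatomegaly: hepatic side effect score for hepatomegaly, taken from the training set of the DILIps drug-induced liver injury prediction system; call rule not given here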;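 for HepSE liver function tests abnormal: hepatic side effect score taken from the DILIps (drug-induced liver injury prediction system) training data, here covering abnormal liver function test findings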
[4] = system: Hepatotoxicity; remark: listed apart in the source;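 for HepSE cholecystitis: Cholecystitis-related hepatic side effect score drawn from the DILIps (drug-induced liver injury prediction) training data set; call rule not given here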;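 for HepSE cholelithiasis: hepatic side effect score for cholelithiasis, drawn from the DILIps training data for predicting drug-induced liver injury; call rule not given here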;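 for HepSE cirrhosis: cirrhosis hepatic side effect score taken from the DILIps (drug-induced liver injury prediction) training set; call rule not given here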;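 for HepSE hepatomegaly: hepatic side effect score for hepatomegaly, taken from the training set of the DILIps drug-induced liver injury prediction system; call rule not given here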;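 for HepSE liver function tests abnormal: hepatic side effect score taken from the DILIps (drug-induced liver injury prediction system) training data, here covering abnormal liver function test findings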
[5] = system: Hepatotoxicity; remark: listed apart in the source
[6] = system: Hepatotoxicity; remark: listed apart in the source
[7] = system: Hepatotoxicity; remark: listed apart in the source
[8] = system: Hepatotoxicity; remark: listed apart in the source
[9] = system: Hepatotoxicity; remark: listed apart in the source
[10] = system: Hepatotoxicity; remark: listed apart in the source
[11] = system: Hepatotoxicity; remark: listed apart in the source
[12] = system: Hepatotoxicity; remark: listed apart in the source
[13] = system: Hepatotoxicity; remark: listed apart in the source
[14] = system: Hepatotoxicity; remark: listed apart in the source

Row | SMILES | HepSE_cirrhosis [1] | HepSE_cholelithiasis [2] | HepSE_cholecystitis [3] | HepSE_hepatomegaly [4] | HepSE_liver function tests abnormal [5] | HepSE_hepatitis [6] | HepSE_Combined Scores [7] | HepSE_jaundice [8] | HepSE_liver fatty [9] | HepSE_hepatic failure [10] | HepSE_liver disease [11] | HepSE_hepatic necrosis [12] | HepSE_elevated liver function tests [13] | HepSE_bilirubinemia [14] | other results
1 | CCC1(c2ccccc2)C(=O)NCNC1=O [PRIMIDONE] | 0 | 0 | 0 | 0 | 0 | 0 | 0 | 0 | 0 | 0 | 0 | 0 | 0 | 0 | –
2 | CCCN(CCC)S(=O)(=O)c1ccc(C(=O)O)cc1 [PROBENECID] | 0 | 0 | 0 | 0 | 0 | 0 | 1 | 0 | 0 | 0 | 0 | 1 | 0 | 0 | –
3 | CCN(CC)CCNC(=O)c1ccc(N)cc1 [PROCAINAMIDE] | 0 | 0 | 0 | 1 | 0 | 0 | 2 | 0 | 0 | 1 | 0 | 0 | 0 | 0 | –
4 | CCN(CC)CCOC(=O)c1ccc(N)cc1 [PROCAINE] | 0 | 0 | 0 | 0 | 0 | 0 | 0 | 0 | 0 | 0 | 0 | 0 | 0 | 0 | –
5 | CNNCc1ccc(C(=O)NC(C)C)cc1 [PROCARBAZINE] | 0 | 0 | 0 | 0 | 0 | 0 | 1 | 1 | 0 | 0 | 0 | 0 | 0 | 0 | –
6 | CN1CCN(CCCN2c3ccccc3Sc3ccc(Cl)cc32)CC1 [PROCHLORPERAZINE] | 0 | 0 | 0 | 0 | 0 | 0 | 1 | 1 | 0 | 0 | 0 | 0 | 0 | 0 | –
7 | OC(CCN1CCCC1)(c1ccccc1)C1CCCCC1 (stereo unspecified) [PROCYCLIDINE] | 0 | 0 | 0 | 0 | 0 | 0 | 0 | 0 | 0 | 0 | 0 | 0 | 0 | 0 | –
8 | CC(=O)[C@H]1CC[C@H]2[C@@H]3CCC4=CC(=O)CC[C@]4(C)[C@H]3CC[C@]12C [PROGESTERONE] | 0 | 0 | 0 | 0 | 0 | 1 | 4 | 1 | 0 | 1 | 0 | 1 | 0 | 0 | –
9 | CC(CN1c2ccccc2Sc2ccccc21)N(C)C (stereo unspecified) [PROMETHAZINE] | 0 | 0 | 0 | 0 | 0 | 0 | 1 | 1 | 0 | 0 | 0 | 0 | 0 | 0 | –
10 | CC(C)[N+](C)(CCOC(=O)C1c2ccccc2Oc2ccccc21)C(C)C [PROPANTHELINE] | 0 | 0 | 0 | 0 | 0 | 0 | 0 | 0 | 0 | 0 | 0 | 0 | 0 | 0 | –
11 | CCCOc1ccc(C(=O)OCCN(CC)CC)cc1N [PROPARACAINE] | 0 | 0 | 0 | 0 | 0 | 0 | 0 | 0 | 0 | 0 | 0 | 0 | 0 | 0 | –
12 | CC(C)c1cccc(C(C)C)c1O [PROPOFOL] | – | – | – | – | – | – | – | – | – | – | – | – | – | – | HepSE_cirrhosis ([1]; Liver): 0; HepSE_cholelithiasis ([2]; Liver): 0; HepSE_cholecystitis ([3]; Liver): 0; HepSE_hepatomegaly ([4]; Liver): 1; HepSE_liver function tests abnormal ([5]; Liver): 0; HepSE_hepatitis ([6]; Liver): 0; HepSE_Combined Scores ([7]; Liver): 1; HepSE_jaundice ([8]; Liver): 0; HepSE_liver fatty ([9]; Liver): 0; HepSE_hepatic failure ([10]; Liver): 0; HepSE_liver disease ([11]; Liver): 0; HepSE_hepatic necrosis ([12]; Liver): 0; HepSE_elevated liver function tests ([13]; Liver): 0; HepSE_bilirubinemia ([14]; Liver): 0
13 | CCC(=O)O[C@](Cc1ccccc1)(c1ccccc1)[C@H](C)CN(C)C [PROPOXYPHENE] | 0 | 0 | 0 | 0 | 1 | 0 | 2 | 1 | 0 | 0 | 0 | 0 | 0 | 0 | –
14 | CC(C)NCC(O)COc1cccc2ccccc12 (stereo unspecified) [PROPRANOLOL] | 0 | 0 | 0 | 0 | 0 | 0 | 0 | 0 | 0 | 0 | 0 | 0 | 0 | 0 | –
